According to ChEMBL document CHEMBL4507325 (2021):

Target: Branched-chain-amino-acid aminotransferase, mitochondrial (Homo sapiens, UniProt O15382)
Sequence (O15382 whole entry): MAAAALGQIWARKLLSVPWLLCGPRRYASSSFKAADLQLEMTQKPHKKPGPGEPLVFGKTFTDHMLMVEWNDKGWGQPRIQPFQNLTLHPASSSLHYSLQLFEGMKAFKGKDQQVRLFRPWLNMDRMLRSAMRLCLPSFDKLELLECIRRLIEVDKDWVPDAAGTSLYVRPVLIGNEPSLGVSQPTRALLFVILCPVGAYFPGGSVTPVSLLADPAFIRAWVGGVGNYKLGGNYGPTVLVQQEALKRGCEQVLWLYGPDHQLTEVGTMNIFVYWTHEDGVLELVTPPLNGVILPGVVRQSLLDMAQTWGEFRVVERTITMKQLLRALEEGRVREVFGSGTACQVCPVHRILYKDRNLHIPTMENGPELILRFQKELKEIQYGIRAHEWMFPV

IC50: 10.8 µM (not active)
Compound: Cc1ccccc1Oc1cc(-n2c(=O)cc(C(F)(F)F)[nH]c2=O)c2ccccc2c1 [BAY-771]
